According to patent US11191855B2, “1,7-diaryl-1,6-heptadiene-3,5-dione derivatives, methods for the production and use thereof” (UNIVERSITÄTSKLINIKUM REGENSBURG, priority 2015, dated 2021):
Like-named read-outs stand apart in the source and are kept apart here.

System: E. coli ATCC 25922
Assay: Phototoxicity test c.1) (LED array 430-435 nm, CFU count by Miles and Misra)
Format: cell-based, Escherichia coli
Conditions: Escherichia coli, ATCC25922, light or radiation study, light dose 33.8 J/cm^2, approx. 435 nm, 60 min at 9.4 mW/cm^2, vs reference control; for log reduction at 10 µM: read-out: Effectiveness against E. Coli: Reduction in CFU in log10 at concentration of 10 μM; for log reduction at 50 µM: read-out: Effectiveness against E. Coli: Reduction in CFU in log10 at concentration of 50 μM
Procedure: A sample of the bacterial cell Staphylococcus. aureus (ATCC number: 25923) or Escherichia. coli (ATCC number: 25922) was removed from a cryo-freeze culture and cultured under aerobic conditions at 37° C. and 175 rpm overnight in an orbital shaker (MAXQ4000, Thermo Scientific, Dubuque, Iowa, USA). Growth was carried out in 20 mL Todd-Hewitt broth (Carl Roth, Karlsruhe, Germany) supplemented with 0.3% of yeast extract (AppliChem, Darmstadt, Germany).
Subsequently, dilutions (0, 5, 10, […] and 20% v/v of the overnight culture) and their absorptions were measured at 600 nm in triplicate for 100 μL (Infinite 200 M Pro, Tecan, Mannedorf, Switzerland). A calibration graph (Microsoft Excel) was used to calculate the volume which was required to produce 20 mL of a culture with an absorption of 0.05 at 600 nm. The volume calculated for the overnight culture was topped up with Todd-Hewitt broth (composition as above) to 20 mL and incubated for two hours at 37° C. with constant movement (175 rpm, MAXQ4000). The cultures were then in the exponential growth phase; the absorption at 600 nm was between 0.3 and 0.45.
A 2-hour culture was divided into 1800 μL aliquots. After centrifuging at 20° C., 830 rcf, 5 min (5417R centrifuge, Eppendorf, Hamburg, Germany), the pellets were re-suspended in phosphate buffer (Dulbeccos' Modified Phosphate Saline, DPBS, Sigma-Aldrich) with either 10 or 50 μM of the corresponding photosensitizer, wherein the final volume was kept at 1800 μL.
The solutions obtained were immediately incubated on the orbital shaker (see above for parameters) for 5 or 25 minutes.
Three controls were run at the same time for each photosensitizer. The “light only” control contained DPBS without photosensitizer. The “photosensitizer only” (“PS only”) control was incubated like the PDI samples, but not irradiated and kept strictly in darkness. A further control (double negative, “Co−/−”), received neither light nor photosensitizer.
After the incubation, duplicates of the samples (500 μL each) were transferred into a 24-well microtitre plate (Cellstar, Greiner Bio-One, Frickenhausen, Germany). The “PS only” and “Co −/−” samples were placed in their own microtitre plate which was packed in aluminium foil so as to be lightproof.
The irradiation was carried out under constant shaking (MTS4, IKA, Staufen, Germany, 175 rpm) from below on a LED array with maximum homogeneity of the lighting surface. All of the controls were shaken in the same manner. The technical data for the light source are shown in Table 2; the total dose of light applied was 33.8 J/cm^2.
The determination of the colony forming units (CFU) was carried out in accordance with the method published by Miles and Misra (Miles, A A; Misra, S S, Irwin, J O (1938 Nov.). “The estimation of the bactericidal power of the blood” The Journal of hygiene 38 (6): 732-49). In this regard, serial dilutions (1:10) of the corresponding bacterial suspension were produced in DPBS. 5×10 μL of each bacterial dilution was then dripped onto Todd-Hewitt plates (with broth, additional 1.5% agar (Agar-Agar, Kobe I, Roth, Karlsruhe, Germany) and incubated at 37° C. for 24 h. Next, the number of surviving colony forming units was determined. All of the tests were carried out four times.
The photosensitizers were tested against the bacterial strain E. coli ATCC 25922. FIGS. 1-20 show the measured surviving colony forming units (CFU).
The average reference control (arithmetic mean with standard deviation) (no light, no PS) was 3.6×10^8/mL. The logarithmic reduction after illumination is shown with respect to the reference control. The respective upper value, indicated by a *, refers to an incubation period of 5 min and the respectively lower value, indicated by a #, refers to an incubation period of 25 min.

[1] = 5 min, incubation period 5 min (upper value, *)
[2] = 25 min, incubation period 25 min (lower value)

Cl.Cl.Cl.Cl.NCCOc1ccc(/C=C/C(=O)CC(=O)/C=C/c2ccc(OCCN)c(OCCN)c2)cc1OCCN [Curcumin 03 hydrochloride]
log reduction at 10 µM [1]: > 7
log reduction at 50 µM [1]: > 7
log reduction at 10 µM [2]: > 7
log reduction at 50 µM [2]: > 7

COc1cc(/C=C/C(=O)CC(=O)/C=C/c2ccc(OCCN)c(OC)c2)ccc1OCCN.Cl.Cl [Curcumin 01a hydrochloride]
log reduction at 10 µM [1]: > 1
log reduction at 50 µM [1]: > 5
log reduction at 10 µM [2]: > 2
log reduction at 50 µM [2]: > 5
